# Source: patent US20210268030A1, “FIBROADIPOGENIC PROGENITOR-DERIVED EXOSOMES FOR REGENERATION OF DYSTROPHIC MUSCLES” (EXOFIX S.R.L., priority 2018, published 2021)
# Tested on: mdx muscles
# Assay: Regeneration, fibrosis and inflammation in mdx tibialis anterior after exosome injection or systemic TSA
# Format: in vivo, mdx mice
# Conditions: 21 days; exosomes intramuscular every 7 days or TSA daily intra-peritoneal
# Description: Animals were used at the specified age and treated for the indicated periods with daily intra peritoneal injections of Trichostatin A, TSA (0.6 mg/kg/day; #T8552, Sigma), dissolved in phospate-saline solution or in phospate-saline alone as vehicle control (CTR). Muscle injury was performed by intramuscular injection in Tibliais Anterior (TA) of Cardiotoxin—CTX− (10 μM, 10 mg/mL) (#L8102, Lotaxan Valence, France, http://www.latoxan.com), 3 days before mice sacrifice.
# FAPs-derived exosomes at a final concentration of 10 μg in 20 μL of PBS1x (0.5 ug/μl) (#14190-1444, Gibco by life technologies) and its vehicle of control (20 μl PBS1x) were injected 3 times in left TA of young C57BL6/mdx mice: every 7 days for 21 days.
# For Masson Trichrome staining to analyze fibrotic tissue, muscle cryo-sections were fixed for 20′ at 56° C. in Bouin's Solution (#HT10132, L Sigma) and then stained in Working Weigert's Iron Hematoxilin solution for 5 min (#HT1079, Sigma), washed in running tap water for 5 min and stained in Biebrich Scarlet-Acid Fucsin for 5 min (#HT151, Sigma). Sections were rinsed in de-ionized water and re-fixed in freshly made Phosphomolybdic/Phosphotungstic/dH2O (1:1:2) acid solution for 8 min (#HT153, #HT152, Sigma), and then they are stained in Aniline Blue solution for 5 min (#HT154, Sigma) and in acid acetic 1% for 2 min (#27221, Sigma). The slides were dehydratated in ethanol (#02860, Sigma) and xilene (#X1040, Sigma) and mounted with EUKITT (#03989, Sigma), then visualized using a Nikon Eclipse 90i: collagen fibers are stained in blue, the nuclei stained in black and the muscle tissue is stained in red. miRNA in situ hybridization was performed as described by Pena (2009) in formaldehyde and carbodiimide (EDC)-fixed TA cryo-sections (0.16M 90 min at RT,_#25952-53-8, Merck KGaA). After washes with 0.2% glycine (#G8898, Sigma) and TBS, cryo-sections were acetylated using 0.1 M triethanolamine and 0.25% acetic anhydride for 25 min at RT (respectively #90275, #A6404, Sigma). This steps are followed by a pre-hybridization using 2× of SSC, 25% formamide (#F9037, Sigma); 0.2% Triton (#X100, Sigma) 30 min at RT and by the over night hybridization at 4° C. with the has-miR206 probe (10 pmol, #18100-01, exiqon) dissolved in a solution of 50% formamide, 250 μg/ml tRNA (#R1753, Sigma), 200 μg/ml SSDNA (#D7656, Sigma), 10% dextran sulphate (#D8906, Sigma) and 2× SSC. The hybridization was followed by specific washes with SSC to eliminate non specific binding of probe (5× SSC 5 min at RT, 1× SSC 15 min at 45° C., 2% BSA in 0.2× SSC 15 min at 4° C., 2× SSC 5 min at RT, TNbuffer 10 min at RT and TNT buffer 15′ at RT) and by the incubation of cryo-section using anti-digoxigenin-ap fab fragments ( 1/100, #11093274910, Roche) dissolved in TNbuffer for 2 hours at RT. To reveal the miRNA probe specific binding cryo-sections, covered from light, were incubating over night at 4° C. with 0.375 mg/ml of NBT and 0.188 mg/ml BCIP dissolved in a solution of TMNbuffer (respectively #11383213001 and #11383221001, Roche).
# For immunofluorescence analysis, cryo-sections and cells were fixed in 4% PFA for 10 min and permeabilized with 100% cold acetone (#32201, Sigma) for 6 min at −20° C. or 100% cold Methanol (#32213, Sigma) for 6 min at −20° or with 0.25% Triton for 15 min at RT. Muscle sections were blocked for 1 h with a solution containing 4% BSA (#A7030, Sigma) in PBS. […]
smiles,measurement,value
"CC(/C=C/C(=O)NO)=C\[C@@H](C)C(=O)c1ccc(N(C)C)cc1 [TSA, Trichostatin A]",embryonic-MyHC-positive myofibers (eMyHC),increase
same,"fibers calibre, cross sectional area (CSA)",increase
same,fibrosis,reduce
same,inflammation (MPO),significant reduction
same,muscle fiber area fraction (MFAF),increase
